Data published in PubChem BioAssay (NCI).
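How tested: cells in 96-well plates exposed to compound for 48 hours at five concentrations. Abbreviation: GI50, concentration required for 50% inhibition of growth. TGI: total growth inhibition.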

What follows are compounds tested on TK-10 renal (assay: NCI anticancer screen, dose series, 48 h).

SMILES	GI50	TGI
C#C[C@]1(O)CC[C@H]2[C@@H]3CC=C4c5sc(Nc6ccccc6)nc5CC[C@]4(C)[C@H]3CC[C@@]21C	3.79 µM	13.2 µM
O=C(Nc1ccc([N+](=O)[O-])cc1)C1C(=O)C(=O)N(c2ccc([N+](=O)[O-])cc2)C1=O (stereo unspecified)		> 100 µM
Cc1cn2c(/C=C3/C(=O)Nc4ccccc43)c(-c3ccc(Cl)cc3)nc2s1	8.99 µM	17.3 µM
O=C(CCC/C(CC(=O)c1ccc(Br)cc1)=N\O)Nc1ccccc1		> 100 µM
O=C(/C=C/c1c(O)ccc2ccccc12)c1ccc2ccccc2c1		> 100 µM
O=c1[nH]c2cc(Cl)ccc2n1C1CCN(CCCC(c2ccc(F)cc2)c2ccc(F)cc2)CC1	1.94 µM	3.55 µM
CCOC(=O)C1N(S(=O)(=O)c2ccc(C)cc2)CCC12C(c1ccc(OC)cc1)NC1CCCCC12 (stereo unspecified)		> 100 µM
COc1ccccc1NC(=O)C1=C(C)NC(C)=C(C(=O)Nc2ccccc2OC)C1c1ccc([N+](=O)[O-])cc1		> 100 µM
O=C(CSc1nnc(-c2ccccc2NC(=O)C(F)(F)F)c(=O)[nH]1)NC(=O)Nc1ccccc1		> 100 µM
COC(=O)/C=C/C1C(C(=O)OC)C2(C(=O)OC)CCC1(C(=O)OC)N2 (stereo unspecified)		> 100 µM
CC(C)(C)N1CC2(CCCCC2)C1=O		> 100 µM
C#CC(=O)Nc1cccc(Nc2nc3c(c(NCc4ccccc4)n2)CCCC3)c1	1.49 µM	2.85 µM
COc1ccc(C(=O)C(CO)Oc2ccccc2OC)cc1OC (stereo unspecified)		> 100 µM
N#CC(/C(=N/NC(=O)C(=O)NN)C(=O)NC12CC3CC(CC(C3)C1)C2)c1ccccc1 (stereo unspecified)		> 100 µM
CC(C)(C)C(=O)/C=C/c1ccc(Oc2ccccc2)cc1		59.7 µM
CN=NN(C)C(=O)NC		> 100 µM
Nc1c(C(=O)N/N=C/c2ccc(-c3ccc(Cl)cc3)o2)cnn1-c1ccnc2c(C(F)(F)F)cccc12	> 100 µM	> 100 µM
NC(N)=N/N=C/c1cc(Cl)cc(Cl)c1O		> 100 µM
CCCCCCCCCc1cc(=O)c2c(O)cccc2o1		> 100 µM
N#CC1Nc2ccccc2[C@@H](O)C1O (stereo partly specified)		> 100 µM
CCOC(=O)CCc1c(C)c2c(OC(C)=O)cc(OC(C)=O)cc2oc1=O		> 100 µM
O=C(CN1CCCCC1)N1CCc2c([nH]c3ccccc23)C1c1cccnc1 (stereo unspecified)		> 100 µM
COC(=O)C12C3C4C5(C(=O)OC)C(C1C35C(=O)N(C(C)C)C(C)C)C42C(=O)N(C(C)C)C(C)C (stereo unspecified)		> 50 µM
COc1ccc(C2C(C#N)=C(N)OC3=C2COc2ccc(F)cc23)cc1OC (stereo unspecified)	19.4 µM	60.4 µM
Cc1cc(C)n(CCNCCn2nc(C)cc2C)n1		> 100 µM
O=C1CSC(Cc2nc3ccccc3[nH]2)=N1		48.1 µM
O=C(/C=C/c1ccccc1)/C=C/c1ccccc1		> 100 µM
N#C/C(=C\c1ccc(O)c(O)c1)C(N)=O		> 100 µM
CCOC(=O)C1=C(C)N(N)C(=S)NC1c1ccc(C)cc1 (stereo unspecified)	40.2 µM	> 100 µM
N#CC(C#N)=c1[nH]c2cccc3c2-c2c(cccc2c3=C(C#N)C#N)[nH]1		> 100 µM

The compounds below were run on SK-MEL-28 melanoma (assay: NCI anticancer screen, dose series, 48 h).

SMILES	GI50	TGI
CC(=O)Oc1ccccc1C(=O)N=C1[Se]CCN1C(=O)c1ccccc1OC(C)=O	0.492 µM	3.25 µM
O=S(O)CCCCSSCc1ccccc1CSSCCCCS(=O)O		31.9 µM
CCOC(=O)c1[nH]c(COC(C)=O)c(CCCOC(C)=O)c1CCCOC(C)=O		> 100 µM
COc1cc(/C=C2\C(=O)Nc3ccc(F)cc32)cc(OC)c1OC	56.7 µM	> 100 µM
C#C[C@]1(O)CC[C@H]2[C@@H]3CC=C4c5sc(Nc6ccccc6)nc5CC[C@]4(C)[C@H]3CC[C@@]21C	0.692 µM	2.75 µM
O=C(Nc1ccc([N+](=O)[O-])cc1)C1C(=O)C(=O)N(c2ccc([N+](=O)[O-])cc2)C1=O (stereo unspecified)		> 100 µM
O=C(CCC/C(CC(=O)c1ccc(Br)cc1)=N\O)Nc1ccccc1		> 100 µM
O=C(/C=C/c1c(O)ccc2ccccc12)c1ccc2ccccc2c1		> 100 µM
O=c1[nH]c2cc(Cl)ccc2n1C1CCN(CCCC(c2ccc(F)cc2)c2ccc(F)cc2)CC1	1.47 µM	3.1 µM
CCOC(=O)C1N(S(=O)(=O)c2ccc(C)cc2)CCC12C(c1ccc(OC)cc1)NC1CCCCC12 (stereo unspecified)		> 100 µM
COc1ccccc1NC(=O)C1=C(C)NC(C)=C(C(=O)Nc2ccccc2OC)C1c1ccc([N+](=O)[O-])cc1		> 100 µM
O=C(CSc1nnc(-c2ccccc2NC(=O)C(F)(F)F)c(=O)[nH]1)NC(=O)Nc1ccccc1		> 100 µM
CC(C)(C)N1CC2(CCCCC2)C1=O		> 100 µM
C#CC(=O)Nc1cccc(Nc2nc3c(c(NCc4ccccc4)n2)CCCC3)c1	1.49 µM	2.97 µM
COc1ccc(C(=O)C(CO)Oc2ccccc2OC)cc1OC (stereo unspecified)		> 100 µM
N#CC(/C(=N/NC(=O)C(=O)NN)C(=O)NC12CC3CC(CC(C3)C1)C2)c1ccccc1 (stereo unspecified)		> 100 µM

SMILES	GI50	TGI
CC(C)(C)C(=O)/C=C/c1ccc(Oc2ccccc2)cc1		> 100 µM
CN=NN(C)C(=O)NC		> 100 µM
Nc1c(C(=O)N/N=C/c2ccc(-c3ccc(Cl)cc3)o2)cnn1-c1ccnc2c(C(F)(F)F)cccc12	> 100 µM	> 100 µM
NC(N)=N/N=C/c1cc(Cl)cc(Cl)c1O		> 100 µM
CCCCCCCCCc1cc(=O)c2c(O)cccc2o1		> 100 µM
N#CC1Nc2ccccc2[C@@H](O)C1O (stereo partly specified)		> 100 µM
CCOC(=O)CCc1c(C)c2c(OC(C)=O)cc(OC(C)=O)cc2oc1=O		> 100 µM
O=C(CN1CCCCC1)N1CCc2c([nH]c3ccccc23)C1c1cccnc1 (stereo unspecified)		> 100 µM
COC(=O)C12C3C4C5(C(=O)OC)C(C1C35C(=O)N(C(C)C)C(C)C)C42C(=O)N(C(C)C)C(C)C (stereo unspecified)		> 50 µM
COc1ccc(C2C(C#N)=C(N)OC3=C2COc2ccc(F)cc23)cc1OC (stereo unspecified)	51.8 µM	> 100 µM
Cc1cc(C)n(CCNCCn2nc(C)cc2C)n1		> 100 µM
O=C1CSC(Cc2nc3ccccc3[nH]2)=N1		> 76.1 µM
O=C(/C=C/c1ccccc1)/C=C/c1ccccc1		42.9 µM
N#C/C(=C\c1ccc(O)c(O)c1)C(N)=O		> 100 µM
CCOC(=O)C1=C(C)N(N)C(=S)NC1c1ccc(C)cc1 (stereo unspecified)	6.99 µM	> 100 µM
